Reference: patent US20210147498A1, “USE OF GRAM-NEGATIVE LYSIN-ANTIMICROBIAL PEPTIDE (AMP) POLYPEPTIDE CONSTRUCTS IN PULMONARY SURFACTANT AND BIOFILMS” (priority 2018, published 2021)
Where two headings read alike, the source gives them in different places.

Tested on: carbapenem-resistant P. aeruginosa strains
Assay: microbe, parasite or virus in culture
Type: cell-based, Pseudomonas aeruginosa
Conditions: for MIC: Pseudomonas aeruginosa; for MIC Combination / MIC Alone: vs. WC-452
Procedure: Such resensitization may be determined by combining the present lysins or lysin-AMP polypeptide constructs with an antibiotic in a checkerboard assay as described herein. Antibiotic-resistant bacteria, such as carbapenem-resistant P. aeruginosa, are added to the lysin or lysin-AMP polypeptide construct combination. […] See Clinical and Laboratory Standards Institute (CLSI), CLSI. […] M100 Performance Standards for Antimicrobial Susceptibility Testing; 29th Edition. Clinical and Laboratory Standards Institute, Wayne, Pa., which is herein incorporated by reference in its entirety.
Up to seven carbapenem-resistant isolates were assessed. […] See Clinical and Laboratory Standards Institute (CLSI), CLSI. […] M100 Performance Standards for Antimicrobial Susceptibility Testing; 29th Edition. Clinical and Laboratory Standards Institute, Wayne, Pa.

Compound: C[C@@H](O)[C@H]1C(=O)N2C(C(=O)O)=C(SCCN=CN)C[C@H]12 [Imipenem, imipenem]
- MIC (GN121, read-out: MIC (μg/mL) Alone, isolate PA20, checkerboard Imipenem + GN121): 16 µg/mL
- MIC (GN121, read-out: MIC (μg/mL) Alone, isolate PA21, checkerboard Imipenem + GN121): 32 µg/mL
- MIC (GN121, read-out: MIC (μg/mL) Alone, isolate PA23, checkerboard Imipenem + GN121): 16 µg/mL
- MIC (GN123, read-out: MIC (μg/mL) Alone, isolate PA19, checkerboard IMIPENEM + GN123): 32 µg/mL
- MIC (GN123, read-out: MIC (μg/mL) Alone, isolate PA20, checkerboard IMIPENEM + GN123): 16 µg/mL
- MIC (GN123, read-out: MIC (μg/mL) Alone, isolate PA21, checkerboard IMIPENEM + GN123): 32 µg/mL
- MIC (GN123, read-out: MIC (μg/mL) Alone, isolate PA22, checkerboard IMIPENEM + GN123): 16 µg/mL
- MIC (GN123, read-out: MIC (μg/mL) Alone, isolate PA23, checkerboard IMIPENEM + GN123): 8 µg/mL
- MIC (GN123, read-out: MIC (μg/mL) Alone, isolate PA24, checkerboard IMIPENEM + GN123): 32 µg/mL
- MIC (GN123, read-out: MIC (μg/mL) Alone, isolate WC-452, checkerboard IMIPENEM + GN123): 16 µg/mL
- susceptibility category of the isolate, carbapenem Alone (isolate PA19): (R) ((R) = resistant)
- MIC (μg/mL) Combination (isolate PA19, IMIPENEM combined with GN123): 0.5 µg/mL
- MIC (μg/mL) Combination (isolate PA19, Imipenem combined with GN121): 1 µg/mL
- susceptibility category of the isolate, carbapenem in Combination (isolate PA19, combined with GN121): (S) ((S) = sensitive)
- susceptibility category of the isolate, carbapenem in Combination (isolate PA19, combined with GN123): (S) ((S) = sensitive)
- susceptibility category of the isolate, carbapenem Alone (isolate PA20): (R) ((R) = resistant)
- MIC (μg/mL) Combination (isolate PA20, IMIPENEM combined with GN123): 1 µg/mL
- MIC (μg/mL) Combination (isolate PA20, Imipenem combined with GN121): 0.5 µg/mL
- susceptibility category of the isolate, carbapenem in Combination (isolate PA20, combined with GN121): (S) ((S) = sensitive)
- susceptibility category of the isolate, carbapenem in Combination (isolate PA20, combined with GN123): (S) ((S) = sensitive)
- susceptibility category of the isolate, carbapenem Alone (isolate PA21): (R) ((R) = resistant)
- MIC (μg/mL) Combination (isolate PA21, IMIPENEM combined with GN123): 0.5 µg/mL
- MIC (μg/mL) Combination (isolate PA21, Imipenem combined with GN121): 1 µg/mL
- susceptibility category of the isolate, carbapenem in Combination (isolate PA21, combined with GN121): (S) ((S) = sensitive)
- susceptibility category of the isolate, carbapenem in Combination (isolate PA21, combined with GN123): (S) ((S) = sensitive)
- susceptibility category of the isolate, carbapenem Alone (isolate PA22): (R) ((R) = resistant)
- MIC (μg/mL) Combination (isolate PA22, IMIPENEM combined with GN123): 2 µg/mL
- MIC (μg/mL) Combination (isolate PA22, Imipenem combined with GN121): 2 µg/mL
- susceptibility category of the isolate, carbapenem in Combination (isolate PA22, combined with GN121): (S) ((S) = sensitive)
- susceptibility category of the isolate, carbapenem in Combination (isolate PA22, combined with GN123): (S) ((S) = sensitive)
- susceptibility category of the isolate, carbapenem Alone (isolate PA23): (R) ((R) = resistant)
- MIC (μg/mL) Combination (isolate PA23, IMIPENEM combined with GN123): 0.25 µg/mL
- MIC (μg/mL) Combination (isolate PA23, Imipenem combined with GN121): 0.125 µg/mL
- susceptibility category of the isolate, carbapenem in Combination (isolate PA23, combined with GN121): (S) ((S) = sensitive)
- susceptibility category of the isolate, carbapenem in Combination (isolate PA23, combined with GN123): (S) ((S) = sensitive)
- susceptibility category of the isolate, carbapenem Alone (isolate PA24): (R) ((R) = resistant)
- MIC (μg/mL) Combination (isolate PA24, IMIPENEM combined with GN123): 2 µg/mL
- MIC (μg/mL) Combination (isolate PA24, Imipenem combined with GN121): 1 µg/mL
- susceptibility category of the isolate, carbapenem in Combination (isolate PA24, combined with GN121): (S) ((S) = sensitive)
- susceptibility category of the isolate, carbapenem in Combination (isolate PA24, combined with GN123): (S) ((S) = sensitive)
- susceptibility category of the isolate, carbapenem Alone (isolate WC-452): (R) ((R) = resistant)
- MIC (μg/mL) Combination (isolate WC-452, IMIPENEM combined with GN123): 1 µg/mL
- susceptibility category of the isolate, carbapenem in Combination (isolate WC-452, combined with GN123): (S) ((S) = sensitive)
- susceptibility category of the isolate, carbapenem in Combination (isolate WC-452, combined with GN351): (S) ((S) = sensitive)
- susceptibility category of the isolate, carbapenem in Combination (isolate WC-452, combined with GN370): (S) ((S) = sensitive)
- susceptibility category of the isolate, carbapenem in Combination (isolate WC-452, combined with GN428): (S) ((S) = sensitive)
- MIC Combination (IPM combined with GN351): 0.5 mg/L
- MIC Combination (IPM combined with GN370): 0.5 mg/L
- MIC Combination (IPM combined with GN428): 1 mg/L
- MIC Alone (checkerboard IPM + GN351): 16 mg/L
- MIC Alone (checkerboard IPM + GN370): 16 mg/L
- MIC Alone (checkerboard IPM + GN428): 16 mg/L
